Reference: article PMC9590610 (Chemical biology & drug design, 2020)
Blank lines part the entries; values can stand above or below the molecule they belong to.

Assays:
[1] = target: FAK (focal adhesion kinase) FERM domain (Homo sapiens, UniProt Q05397); type: binding
[2] = target: Recombinant HER2-ICD (Intracellular Domain) (human, UniProt P04626 676-1255)

IC50 [1]: 187 nM
Molecule: CC(Oc1ccc(C(=O)NCCN2CCN(C)CC2c2ccccc2)cn1)c1ccccc1 (racemic) [VS14, (rac)-N-(2-(4-methyl-2-phenylpiperazin-1-yl)ethyl)-6-(1-phenylethoxy)nicotinamide]

IC50 [1]: 170 nM
Molecule: Cc1nc(SC(C)C(=O)Nc2ccc3[nH]c(=O)[nH]c3c2)n(C2CCCC2)c1C (racemic) [VS4, (rac)-2-((1-cyclopentyl-4,5-dimethyl-1H-imidazol-2-yl)thio)-N-(2-oxo-2,3-dihydro-1H-benzo[d]imidazol-5-yl)propanamide]

Kd [2]: 571 nM
B1: GST-FAK-NT (FERM) (domain or fragment, UniProt Q05397 35-355, looked up)
chain: RVLKVFHYFESNSEPTTWASIIRHGDATDVRGIIQKIVDSHKVKHVACYGFRLSHLRSEEVHWLHVDMGVSSVREKYELAHPPEEWKYELRIRYLPKGFLNQFTEDKPTLNFFYQQVKSDYMLEIADQVDQEIALKLGCLEIRRSYWEMRGNALEKKSNYEVLEKDVGLKRFFPKSLLDSVKAKTLRKLIQQTFRQFANLNREESILKFFEILSPVYRFDKECFKCALGSSWIISVELAIGPEEGISYLTDKGCNPTHLADFTQVQTIQYSNSEDKDRKGMLQLKIAGAPEPLTVTAPSLTIAENMADLIDGYCRLVNGTS
